{"source": "patent US20210052545A1", "about": "“COMPOSITIONS AND METHODS OF THEIR USE” (priority 2018, published 2021)", "origin": "cited, not measured here", "settings": "human, in vivo", "data": [{"smiles": "NC(=O)N1c2ccccc2C=Cc2ccccc21", "note": "[carbamezepine]", "values": [{"measurement": "increase in the risk of blood dyscrasias", "result": "five- to eight"}, {"measurement": "patients showing a 25% decrease in white blood cell count", "result": 7, "unit": "%"}]}]}
